The record followed here is ChEMBL document CHEMBL1201862, “PubChem BioAssay data set” (2004).

Test systems include UACC-62; NCI-H23; Hs-578T; NCI-H522; SN12C; SW-620; RPMI-8226; T47D; U-251; 786-0; UACC-257; A498; HCT-15; SNB-75; SF-295; OVCAR-8; CCRF-CEM; SF-268; HL-60.
Experiment in all cases: inhibition of tumour cell growth, NCI panel, 48 h

The structures appear in SMILES notation.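 Step 1: Grow cells in 96-well plates. Step 2: Expose to compound for 48 hours at 5 concentrations. Step 3: Interpolate endpoints linearly; if unreached, use highest concentration. GI50 is the concentration that inhibits growth by half.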 Activity calls are given as the source filed them. No stated cut-off is given here; in the data, active = GI50 up to about 1.1 µM and inactive = higher. A value given as a limit tells only on which side of the number the result lay.

Turning to `Cl/C(=N\c1cccc2ccccc12)N(c1ccccc1)c1ccccc1`, the GI50 is 75.2 µM (inactive) in the assay on UACC-62; > 100 µM (inactive) in the assay on NCI-H23; > 100 µM (inactive) in the assay with Hs-578T; 41.2 µM (inactive) in the assay with NCI-H522; > 100 µM (inactive) with SN12C; 92.7 µM (inactive) with SW-620. Also, the GI50 in the assay on RPMI-8226 is 27.1 µM (inactive); in the assay with T47D it was 61.4 µM (inactive); in the assay on U-251 it was 57.7 µM (inactive); in the assay on 786-0 it was > 100 µM (inactive); with UACC-257, 70 µM (inactive); in the assay on A498 it was > 100 µM (inactive). In addition, the GI50 with HCT-15 was > 100 µM; with SNB-75, > 100 µM (inactive); with SF-295 it was 67.6 µM (inactive).
Turning to `CC(=O)c1c(C)n(C)c2c1nnc1ccccc12`, the GI50 with UACC-62 was 23.1 µM (inactive); in the assay with NCI-H23 it was 37.5 µM (inactive); in the assay on Hs-578T, 32.6 µM (inactive); in the assay with NCI-H522, > 100 µM (inactive); in the assay with SN12C, 40.3 µM (inactive); with SW-620 it was 44.5 µM (inactive). The GI50 with RPMI-8226 was 38.6 µM (inactive); with T47D, > 100 µM (inactive); in the assay on U-251 it was 49.4 µM (inactive); in the assay on OVCAR-8 it was 43.5 µM (inactive); in the assay on 786-0, 36 µM (inactive); in the assay with UACC-257, > 100 µM (inactive). The GI50 in the assay on A498 is 21.1 µM (inactive); with HCT-15, 42.1 µM; with CCRF-CEM, 54.2 µM (inactive); in the assay on SF-295, 40.2 µM (inactive); in the assay on SF-268, 34.1 µM (inactive).
As for `COc1ccc(C[n+]2cccc(O)c2)cc1`, the GI50 in the assay with UACC-62, with NCI-H23, in the assay on Hs-578T, in the assay on HL-60, with SN12C and in the assay with SW-620 was > 100 µM (inactive) in each case. The GI50 is > 100 µM (inactive) in the assay on T47D; > 100 µM (inactive) with U-251; > 100 µM (inactive) in the assay with OVCAR-8; > 100 µM (inactive) in the assay with 786-0; > 100 µM (inactive) in the assay with A498; > 10 µM in the assay on HCT-15. Moreover, the GI50 with CCRF-CEM, in the assay with SF-295 and in the assay with SF-268 was > 100 µM (inactive) each time.
Take `CC1OC(OC2C(OC(=O)[C@@H]3CC(C)(C)C[C@@H]4C5=CC[C@@H]6[C@@]7(C)C[C@H](O)[C@H](OC8OC(CO)C(O)C(O)C8O)[C@@](C)(CO)C7[C@H](O)C[C@@]6(C)[C@]5(C)C[C@@H](O)[C@H]43)OCC(O)C2O)C(O)C(O)C1O` (some centres undefined): the GI50 in the assay on UACC-62 was > 15 µM (inactive); in the assay with NCI-H23, 7.05 µM (inactive); with Hs-578T, > 15 µM (inactive); in the assay on NCI-H522 it was 6.12 µM (inactive); in the assay on HL-60, > 15 µM (inactive); in the assay on SN12C, 5.57 µM (inactive). The GI50 in the assay with SW-620, in the assay with T47D, with U-251, in the assay with OVCAR-8, in the assay on 786-0 and in the assay on UACC-257 was > 15 µM (inactive) each time. The GI50 was > 15 µM with HCT-15; > 15 µM (inactive) in the assay with CCRF-CEM; > 15 µM (inactive) with SNB-75; > 15 µM (inactive) in the assay with SF-295; > 15 µM (inactive) in the assay on SF-268.
On to `CCOC(=O)C1=COC(C)(CCc2ccccc2)CC1=O` (centres undefined), for which the GI50 in the assay with UACC-62 was 55.7 µM (inactive); in the assay with NCI-H23, 95.5 µM (inactive); with Hs-578T, 45 µM (inactive); in the assay on NCI-H522, 24.7 µM (inactive); in the assay on SN12C, > 100 µM (inactive); with SW-620 it was > 100 µM (inactive). The GI50 is 41.9 µM (inactive) with RPMI-8226; 47.2 µM (inactive) in the assay on T47D; 41.3 µM (inactive) with U-251; 52.4 µM (inactive) with OVCAR-8; > 100 µM (inactive) in the assay with 786-0; > 100 µM (inactive) in the assay with UACC-257. Besides, the GI50 in the assay on A498 is > 100 µM (inactive); in the assay on HCT-15 it was > 100 µM; with SNB-75, > 100 µM (inactive); in the assay on SF-295 it was > 100 µM (inactive); in the assay with SF-268 it was > 100 µM (inactive).
Consider `Cc1ccc(/C=N/Nc2cc(C)c3ccccc3n2)s1`, for which the GI50 with UACC-62 is 23.4 µM (inactive); in the assay with NCI-H23 it was 17.5 µM (inactive); in the assay on Hs-578T, 31.5 µM (inactive); with NCI-H522, 4.06 µM (inactive); in the assay on HL-60, 33.2 µM (inactive); in the assay on SN12C, 13.1 µM (inactive). In addition, the GI50 is 21.7 µM (inactive) in the assay on SW-620; 3.91 µM (inactive) in the assay with RPMI-8226; 5.48 µM (inactive) in the assay with T47D; 16.8 µM (inactive) in the assay on U-251; 23.2 µM (inactive) in the assay on OVCAR-8; 18.7 µM (inactive) in the assay with 786-0. For the same molecule, the GI50 in the assay with UACC-257 is 7.53 µM (inactive); with HCT-15 it was 7.36 µM; in the assay on CCRF-CEM it was 13.1 µM (inactive); in the assay on SNB-75, 31.6 µM (inactive); with SF-295 it was 15.1 µM (inactive); in the assay on SF-268, 26.1 µM (inactive).
Take `O=c1c(=O)c2cscc2c1=O`: the GI50 in the assay with UACC-62 was 4.73 µM (inactive); with NCI-H23 it was 5.61 µM (inactive); in the assay on Hs-578T, 9.75 µM (inactive); in the assay on NCI-H522 it was 0.486 µM (active); with SN12C, 5.87 µM (inactive); in the assay with SW-620 it was 0.989 µM (active). Further, the GI50 in the assay on RPMI-8226 was 6.47 µM (inactive); in the assay on T47D, 3.66 µM (inactive); in the assay on U-251 it was 4.75 µM (inactive); in the assay with OVCAR-8 it was 6.55 µM (inactive); in the assay with 786-0 it was 5.22 µM (inactive); in the assay with UACC-257 it was 4.27 µM (inactive). Further, the GI50 was > 25 µM (inactive) in the assay on A498; 5.78 µM in the assay on HCT-15; 4.32 µM (inactive) in the assay with SNB-75; > 25 µM (inactive) with SF-295; 4.4 µM (inactive) in the assay on SF-268.
Consider `C/C=C(/CBr)CCC(Br)C(C)(C)Cl.C/C=C(\CBr)CCC(Br)C(C)(C)Cl` (centres undefined), for which the GI50 in the assay on NCI-H23, in the assay with Hs-578T, with NCI-H522, in the assay with SN12C, with SW-620 and in the assay with RPMI-8226 was > 10 µM (inactive) in each case. In addition, the GI50 in the assay on T47D, with U-251, in the assay on OVCAR-8, in the assay with 786-0, in the assay on UACC-257 and in the assay with A498 was > 10 µM (inactive) each time. Also, the GI50 is > 10 µM in the assay with HCT-15; > 10 µM (inactive) in the assay on CCRF-CEM; > 10 µM (inactive) in the assay on SNB-75; > 10 µM (inactive) in the assay on SF-295; > 10 µM (inactive) in the assay with SF-268.
On to `O/N=C1/Nc2ccccc2C(=S)N2CSCC12` (centres undefined), for which the GI50 in the assay on UACC-62 was 87.5 µM (inactive); with Hs-578T it was > 100 µM (inactive); in the assay with NCI-H522, 37 µM (inactive); in the assay on SN12C, 34 µM (inactive); in the assay on SW-620, 35.6 µM (inactive); in the assay on RPMI-8226, > 100 µM (inactive). In addition, the GI50 with T47D is 54.2 µM (inactive); with U-251, > 100 µM (inactive); in the assay on OVCAR-8 it was > 100 µM (inactive); in the assay on 786-0, 58.2 µM (inactive); in the assay on UACC-257 it was > 100 µM (inactive); in the assay on A498 it was 68.7 µM (inactive). Further, the GI50 is > 100 µM with HCT-15; 20.2 µM (inactive) with CCRF-CEM; 16.4 µM (inactive) in the assay with SNB-75; 63.1 µM (inactive) in the assay with SF-295; 78 µM (inactive) in the assay with SF-268.
For `COC(=O)C1Cc2c(OC)ccc(OC)c2CC(C(=O)OC)C1=O` (centres undefined), the GI50 in the assay with UACC-62 is > 100 µM (inactive); in the assay on NCI-H23 it was 32.4 µM (inactive); with Hs-578T it was > 100 µM (inactive); with NCI-H522, > 100 µM (inactive); in the assay on SN12C it was > 100 µM (inactive); in the assay on SW-620, > 100 µM (inactive). Besides, the GI50 in the assay on RPMI-8226, in the assay with T47D, in the assay on U-251, in the assay on OVCAR-8, with 786-0 and with UACC-257 was > 100 µM (inactive) in each case. In addition, the GI50 in the assay on A498 is > 100 µM (inactive); with HCT-15 it was > 100 µM; in the assay with CCRF-CEM it was > 100 µM (inactive); in the assay on SNB-75, > 100 µM (inactive); with SF-295, > 100 µM (inactive); in the assay with SF-268, > 100 µM (inactive).
For the molecule `O=C(Cc1ccccc1)N/N=C/c1ccccc1O`, the GI50 with UACC-62 is 8.95 µM (inactive); in the assay on NCI-H23 it was 17.8 µM (inactive); in the assay with Hs-578T, 36.1 µM (inactive); in the assay on NCI-H522, 13.2 µM (inactive); in the assay on HL-60, 6.3 µM (inactive); with SN12C it was 17.2 µM (inactive). Besides, the GI50 in the assay with SW-620 was 19.3 µM (inactive); in the assay on RPMI-8226, 15.9 µM (inactive); with T47D, 4.29 µM (inactive); with U-251, 19.5 µM (inactive); in the assay on OVCAR-8, 8.93 µM (inactive); in the assay with 786-0, 6.14 µM (inactive). In addition, the GI50 in the assay with UACC-257 is 9.57 µM (inactive); in the assay with HCT-15 it was 4.25 µM; in the assay on CCRF-CEM, 4.94 µM (inactive); in the assay on SNB-75, 12.5 µM (inactive); with SF-295, 10.3 µM (inactive); in the assay on SF-268, 8.57 µM (inactive).
Consider `CC1(C)S[C@@H]2[C@H](NC(=O)/C=C/c3ccccc3)C(=O)N2[C@H]1C(=O)O`, for which the GI50 in the assay with UACC-62, in the assay with NCI-H23, in the assay on Hs-578T, in the assay on NCI-H522, in the assay on HL-60 and in the assay with SN12C was > 100 µM (inactive) throughout. The GI50 in the assay with SW-620, in the assay with RPMI-8226, in the assay with T47D, in the assay on U-251, in the assay on OVCAR-8 and with 786-0 was > 100 µM (inactive) each time. For the same molecule, the GI50 with UACC-257 was > 100 µM (inactive); in the assay with HCT-15 it was > 100 µM; with CCRF-CEM, > 100 µM (inactive); in the assay with SNB-75 it was 47.9 µM (inactive); in the assay on SF-295, > 100 µM (inactive); with SF-268 it was > 100 µM (inactive).
